Source: patent publication US10196390B2, “TYK2 inhibitors and uses thereof” (Nimbus Lakshmi, Inc., priority 2014, dated 2019)

Legend:
TYK2 = TYK2 (Homo sapiens (Human), UniProt P29597); test: Tyk2 activity inhibition assay (radioactive kinase assay / Caliper assay); format: biochemical
Procedure, shortened: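 Two formats were used. Caliper off-chip mobility shift read phosphorylated peptide 30 (3 uM) after 25 min at 28° C with 9.75 nM TYK2 and ATP at 16 uM or 1 mM. Radioactive assay: 10 μM 33P-ATP, 20 μM peptide, 120 min room temp, P81 filter counting.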

JAK2 = JAK2 (Homo sapiens (Human), UniProt O60674); test: JAK2 activity inhibition assay (radioactive kinase assay / Caliper assay); format: biochemical; conditions: read-out: JAK2 Ki
Procedure, shortened: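 Reaction ran 25 min at 28° C after adding peptide/ATP mix (10 mM MgCl2) to compound and enzyme in HEPES pH 7.5 buffer with Brij-35, Triton and EGTA. EDTA stop, then microfluidic off-chip separation quantified phosphorylated peptide.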

Chain of TYK2 (P29597 whole entry): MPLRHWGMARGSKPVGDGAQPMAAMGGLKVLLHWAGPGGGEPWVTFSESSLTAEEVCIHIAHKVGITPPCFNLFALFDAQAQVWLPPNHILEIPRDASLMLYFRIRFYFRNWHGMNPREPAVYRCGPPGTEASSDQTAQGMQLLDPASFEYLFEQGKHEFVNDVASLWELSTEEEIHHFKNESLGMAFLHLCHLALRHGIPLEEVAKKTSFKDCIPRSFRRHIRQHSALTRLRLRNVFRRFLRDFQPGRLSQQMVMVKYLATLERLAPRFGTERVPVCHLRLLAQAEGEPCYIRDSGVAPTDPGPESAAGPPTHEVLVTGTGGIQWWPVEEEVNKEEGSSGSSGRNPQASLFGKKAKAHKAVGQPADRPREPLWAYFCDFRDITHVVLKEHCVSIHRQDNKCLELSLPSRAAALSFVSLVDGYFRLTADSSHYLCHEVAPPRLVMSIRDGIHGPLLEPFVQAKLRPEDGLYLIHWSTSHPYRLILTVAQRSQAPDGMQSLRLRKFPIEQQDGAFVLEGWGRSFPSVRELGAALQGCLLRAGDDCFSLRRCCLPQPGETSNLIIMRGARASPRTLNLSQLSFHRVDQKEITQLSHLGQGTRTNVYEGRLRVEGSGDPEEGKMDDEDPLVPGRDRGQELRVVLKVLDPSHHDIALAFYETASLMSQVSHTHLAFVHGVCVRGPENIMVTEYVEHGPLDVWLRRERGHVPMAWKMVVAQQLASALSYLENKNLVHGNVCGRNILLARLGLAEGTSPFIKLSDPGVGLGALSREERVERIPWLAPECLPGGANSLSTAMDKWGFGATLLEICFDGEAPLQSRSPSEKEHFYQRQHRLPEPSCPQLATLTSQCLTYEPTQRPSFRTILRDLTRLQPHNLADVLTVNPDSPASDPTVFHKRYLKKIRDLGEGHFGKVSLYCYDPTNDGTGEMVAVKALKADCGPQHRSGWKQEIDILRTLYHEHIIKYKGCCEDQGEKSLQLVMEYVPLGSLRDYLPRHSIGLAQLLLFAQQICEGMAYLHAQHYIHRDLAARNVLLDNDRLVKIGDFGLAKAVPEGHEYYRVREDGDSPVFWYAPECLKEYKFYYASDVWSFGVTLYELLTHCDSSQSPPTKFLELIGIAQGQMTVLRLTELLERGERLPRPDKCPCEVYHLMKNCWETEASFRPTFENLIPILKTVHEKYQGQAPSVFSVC
Chain of JAK2 (O60674 whole entry): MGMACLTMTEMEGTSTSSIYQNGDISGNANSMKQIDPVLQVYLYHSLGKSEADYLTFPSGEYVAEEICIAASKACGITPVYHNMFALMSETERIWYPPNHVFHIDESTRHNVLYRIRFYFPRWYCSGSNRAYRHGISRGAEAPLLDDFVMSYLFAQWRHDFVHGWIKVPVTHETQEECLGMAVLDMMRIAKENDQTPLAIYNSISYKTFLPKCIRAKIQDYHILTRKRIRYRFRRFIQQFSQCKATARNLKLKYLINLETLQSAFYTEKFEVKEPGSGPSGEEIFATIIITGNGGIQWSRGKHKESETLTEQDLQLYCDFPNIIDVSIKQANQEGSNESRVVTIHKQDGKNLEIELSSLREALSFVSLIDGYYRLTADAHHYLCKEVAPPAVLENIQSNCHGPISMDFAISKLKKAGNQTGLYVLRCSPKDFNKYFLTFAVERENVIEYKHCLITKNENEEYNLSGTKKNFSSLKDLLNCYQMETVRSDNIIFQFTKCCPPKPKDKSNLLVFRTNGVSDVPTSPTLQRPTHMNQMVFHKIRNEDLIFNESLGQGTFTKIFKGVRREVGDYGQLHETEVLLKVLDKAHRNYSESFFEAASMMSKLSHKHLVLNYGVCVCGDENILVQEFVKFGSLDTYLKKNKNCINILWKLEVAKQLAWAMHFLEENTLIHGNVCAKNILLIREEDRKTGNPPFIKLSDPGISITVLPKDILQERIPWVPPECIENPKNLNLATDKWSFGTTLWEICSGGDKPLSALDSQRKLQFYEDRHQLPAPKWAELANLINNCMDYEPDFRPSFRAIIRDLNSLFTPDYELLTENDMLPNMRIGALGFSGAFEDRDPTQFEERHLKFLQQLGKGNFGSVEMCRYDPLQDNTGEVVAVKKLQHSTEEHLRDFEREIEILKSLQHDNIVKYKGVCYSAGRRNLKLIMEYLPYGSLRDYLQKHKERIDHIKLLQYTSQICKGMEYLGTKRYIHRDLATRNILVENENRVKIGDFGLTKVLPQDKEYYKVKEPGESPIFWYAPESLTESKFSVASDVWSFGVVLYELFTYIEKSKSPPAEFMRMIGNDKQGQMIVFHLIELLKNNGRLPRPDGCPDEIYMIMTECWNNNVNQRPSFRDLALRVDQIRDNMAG

SMILES | Ki (TYK2) [nM] | Ki (JAK2) [nM]
CN(C(=O)Cc1ccc(Nc2nc(-c3c(F)cccc3F)nc3c2C(=O)NC3)cc1)C1CCNCC1 [Compound I-22, 2-(4-((2-(2,6-difluorophenyl)-5-oxo-6,7-dihydro-5H-pyrrolo[3,4-d]pyrimidin-4-yl)amino)phenyl)-N-methyl-N-(piperidin-4-yl)acetamide] | < 10 | 10 to 100
CCOC(=O)Cc1ccc(Nc2nc(-c3ccccc3Cl)nc3c2C(=O)NC3)cc1 [Compound I-1, Ethyl 2-(4-((2-(2-chlorophenyl)-5-oxo-6,7-dihydro-5H-pyrrolo[3,4-d]pyrimidin-4-yl)amino)phenyl)acetate] | < 10 | 100 to 1000
CN1C(=O)[C@](C)(c2ccc(Nc3nc(-c4c(F)cccc4F)nc4c3C(=O)NC4)cc2)CC1(C)C [Compound I-221, (S)-2-(2,6-difluorophenyl)-4-((4-(1,3,5,5-tetramethyl-2-oxopyrrolidin-3-yl)phenyl)amino)-6,7-dihydro-5H-pyrrolo[3,4-d]pyrimidin-5-one] | < 10 | 10 to 100
O=C(O)Cc1ccc(Nc2nc(-c3c(F)cncc3F)nc3c2C(=O)NC3)cc1 [Compound I-85, 2-(4-((2-(3,5-difluoropyridin-4-yl)-5-oxo-6,7-dihydro-5H-pyrrolo[3,4-d]pyrimidin-4-yl)amino)phenyl)acetic Acid] | 10 to 100 | > 1000
O=C1NCc2nc(-c3c(F)cccc3F)nc(Nc3ccc(CC(=O)N4CCC[C@@H]4CO)cc3)c21 [Compound I-15, (R)-2-(2,6-difluorophenyl)-4-((4-(2-(2-(hydroxymethyl)pyrrolidin-1-yl)-2-oxoethyl)phenyl)amino)-6,7-dihydro-5H-pyrrolo[3,4-d]pyrimidin-5-one] | < 10 | 100 to 1000
N#Cc1cc(Cl)c(-c2nc3c(c(Nc4ccc(CC(=O)O)cc4)n2)C(=O)NC3)c(Cl)c1 [Compound I-9, 2-(4-((2-(2,6-dichloro-4-cyanophenyl)-5-oxo-6,7-dihydro-5H-pyrrolo[3,4-d]pyrimidin-4-yl)amino)phenyl)acetic Acid] | < 10 | 100 to 1000
O=C(Cc1ccc(Nc2nc(-c3c(F)cccc3F)nc3c2C(=O)NC3)cc1)NC1CCNCC1 [Compound I-11, 2-(4-((2-(2,6-difluorophenyl)-5-oxo-6,7-dihydro-5H-pyrrolo[3,4-d]pyrimidin-4-yl)amino)phenyl)-N-(piperidin-4-yl)acetamide] | < 10 | 100 to 1000
CC1(C)C[C@H](c2ccc(Nc3nc(-c4c(F)cccc4F)nc4c3C(=O)NC4)cc2)C(=O)N1 [Compound I-219, (R)-2-(2,6-difluorophenyl)-4-((4-(5,5-dimethyl-2-oxopyrrolidin-3-yl)phenyl)amino)-6,7-dihydro-5H-pyrrolo[3,4-d]pyrimidin-5-one] | < 10 | 10 to 100
O=C(O)Cc1ccc(Nc2nc(-c3c(Cl)cccc3Cl)nc3c2C(=O)NC3)cc1 [Compound I-6, 2-(4-((2-(2,6-dichlorophenyl)-5-oxo-6,7-dihydro-5H-pyrrolo[3,4-d]pyrimidin-4-yl)amino)phenyl)acetic Acid] | < 10 | 100 to 1000

More lines, now with the values ahead:

Ki (TYK2) [nM] | Ki (JAK2) [nM] | SMILES
< 10 | 100 to 1000 | CN1CC[C@@](C)(c2ccc(Nc3nc(-c4c(F)cccc4F)nc4c3C(=O)NC4)cc2)C1=O [Compound I-151, (S)-2-(2,6-difluorophenyl)-4-((4-(1,3-dimethyl-2-oxopyrrolidin-3-yl)phenyl)amino)-6,7-dihydro-5H-pyrrolo[3,4-d]pyrimidin-5-one]
< 10 | > 1000 | O=C1NCc2nc(-c3c(F)cccc3Cl)cc(Nc3ccc(N4CCCC4)cn3)c21 [Compound I-204, 2-(2-chloro-6-fluorophenyl)-4-((5-(pyrrolidin-1-yl)pyridin-2-yl)amino)-6,7-dihydro-5H-pyrrolo[3,4-b]pyridin-5-one]
< 10 | 100 to 1000 | COCCOc1ccc(Nc2nc(-c3c(F)cccc3F)nc3c2C(=O)NC3)cc1 [Compound I-185, 2-(2,6-difluorophenyl)-4-((4-(2-methoxy-ethoxy)-phenyl)amino)-6,7-dihydro-5H-pyrrolo[3,4-d]pyrimidin-5-one]
< 10 | 10 to 100 | CN1CC2(C1)CN(c1ccc(Nc3cc(-c4c(F)cccc4F)nc4c3C(=O)NC4)nc1)C2 [Compound I-187, 2-(2,6-difluorophenyl)-4-((5-(6-methyl-2,6-diazaspiro-[3.3]heptan-2-yl)pyridin-2-yl)amino)-6,7-dihydro-5-pyrrolo[3,4-b]pyridin-5-one]
< 10 | 100 to 1000 | C[C@H](CO)NC(=O)Cc1ccc(Nc2nc(-c3c(F)cccc3F)nc3c2C(=O)NC3)cc1 [Compound I-63, (R)-2-(4-((2-(2,6-difluorophenyl)-5-oxo-6,7-dihydro-5H-pyrrolo[3,4-d]pyrimidin-4-yl)amino)phenyl)-N-(1-hydroxypropan-2-yl)acetamide]
< 10 | 100 to 1000 | O=C1NCc2nc(-c3c(F)cccc3F)nc(Nc3ccc(C4CCN(CCO)C4=O)cc3)c21 (stereo not drawn) [Compound I-149, 2-(2,6-difluorophenyl)-4-((4-(1-(2-hydroxyethyl)-2-oxopyrrolidin-3-yl)phenyl)amino)-6,7-dihydro-5H-pyrrolo[3,4-d]pyrimidin-5-one]
< 10 | < 10 | N[C@@H]1CCCN(c2ccc(Nc3cc(-c4c(F)cccc4F)nc4c3C(=O)NC4)nc2)C1 [Compound I-159, (R)-4-((5-(3-aminopiperidin-1-yl)pyridin-2-yl)amino)-2-(2,6-difluorophenyl)-6,7-dihydro-5H-pyrrolo[3,4-b]pyridin-5-one]
< 10 | 100 to 1000 | O=C(Cc1ccc(Nc2nc(-c3c(F)cccc3F)nc3c2C(=O)NC3)cc1)N[C@@H]1CCNC1 [Compound I-73, (R)-2-(4-((2-(2,6-difluorophenyl)-5-oxo-6,7-dihydro-5H-pyrrolo[3,4-d]pyrimidin-4-yl)amino)phenyl)-N-(pyrrolidin-3-yl)acetamide]
< 10 | 10 to 100 | COC(=O)Cc1ccc(Nc2cc(-c3c(F)cccc3Cl)nc3c2C(=O)NC3)nc1 [Compound I-200, methyl 2-(6-((2-(2-chloro-6-fluorophenyl)-5-oxo-6,7-dihydro-5H-pyrrolo[3,4-b]pyridin-4-yl)amino)pyridin-3-yl)acetate]
< 10 | 10 to 100 | O=C1NCc2nc(-c3c(F)cccc3F)cc(Nc3ccc(N4CCNCC4)cn3)c21 [Compound I-162, 2-(2,6-difluorophenyl)-4-((5-(piperazin-1-yl)pyridin-2-yl)amino)-6,7-dihydro-5H-pyrrolo[3,4-b]pyridin-5-one]
< 10 | 100 to 1000 | COC(=O)C1COCCN1C(=O)Cc1ccc(Nc2nc(-c3c(F)cccc3F)nc3c2C(=O)NC3)cc1 (stereo not drawn) [Compound I-201, methyl 4-(2-(4-((2-(2,6-difluorophenyl)-5-oxo-6,7-dihydro-5H-pyrrolo[3,4-d]pyrimidin-4-yl)amino)phenyl)acetyl)morpholine-3-carboxylate]
< 10 | 100 to 1000 | O=C1NCc2nc(-c3c(F)cccc3F)nc(Nc3ccc([C@@H]4CCCNC4=O)cc3)c21 [Compound I-155, (S)-2-(2,6-difluorophenyl)-4-((4-(2-oxopiperidin-3-yl)phenyl)-amino)-6,7-dihydro-5H-pyrrolo[3,4-d]pyrimidin-5-one]
